According to PubChem BioAssay (NCI):
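Following 48 hours of exposure in 96-well plates, responses at five concentrations were used to interpolate endpoints linearly. GI50 is the concentration that inhibits growth by half. Definition used: TGI = concentration required for complete inhibition of growth.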

How the values were obtained:
Assay in all cases: NCI tumour cell line growth inhibition, 48 h
ACHN renal = test system: ACHN renal
CAKI-1 renal = test system: CAKI-1 renal
HCT-116 colon = test system: HCT-116 colon
HOP-92 NSCLC = test system: HOP-92 NSCLC
K-562 leukemia = test system: K-562 leukemia
NCI-H522 lung = test system: NCI-H522 lung
OVCAR-4 ovarian = test system: OVCAR-4 ovarian
PC-3 prostate = test system: PC-3 prostate
TK-10 renal = test system: TK-10 renal
UO-31 renal = test system: UO-31 renal

SMILES | GI50 (ACHN renal) [µM] | TGI (ACHN renal) [µM] | GI50 (CAKI-1 renal) [µM] | TGI (CAKI-1 renal) [µM] | GI50 (HCT-116 colon) [µM] | TGI (HCT-116 colon) [µM] | GI50 (HOP-92 NSCLC) [µM] | TGI (HOP-92 NSCLC) [µM] | GI50 (K-562 leukemia) [µM] | TGI (K-562 leukemia) [µM] | GI50 (NCI-H522 lung) [µM] | TGI (NCI-H522 lung) [µM] | GI50 (OVCAR-4 ovarian) [µM] | TGI (OVCAR-4 ovarian) [µM] | GI50 (PC-3 prostate) [µM] | TGI (PC-3 prostate) [µM] | GI50 (TK-10 renal) [µM] | TGI (TK-10 renal) [µM] | GI50 (UO-31 renal) [µM] | TGI (UO-31 renal) [µM]
COc1ccc(C(=O)c2cc(C)c(OC)c(C)c2)c(OC)c1OC(=O)C(Cl)Cl | 0.0554 | > 100 | 0.338 | > 100 | 0.0976 | > 100 | 0.216 | > 92.9 | 0.0336 | > 100 | 0.0286 | 1.2 | 0.422 | > 100 | 0.0436 | > 100 | 17.2 | > 100 | 0.0658 | > 50.5
COc1ccc2c(ccc3oc([N+](=O)[O-])cc32)c1 | 0.0274 | 0.232 | 0.128 | 0.755 | 0.0487 | 0.92 | 0.129 | 0.407 | 0.0647 | 6.14 | 0.0952 | 0.319 | 0.422 | 2.01 | 0.305 | 3.63 | 0.278 | 0.854 | 0.224 | 0.763
C=CC(=O)N1CCC(CNc2ncnc(N)c2-c2ccc(Oc3ccccc3)cc2)CC1 | 23.4 | 70.7 | 22.5 | > 100 | 30.1 | > 100 | 18.8 | 65.1 | 22.5 | > 100 | 10.4 | 32.5 | 24.1 | > 100 | 24.9 | > 100 | 21.4 | > 100 | 8.63 | 49.2
O=CCC(O)C(O)C(O)CO (stereo not given) | > 100 | > 100 | > 100 | > 100 | > 100 | > 100 | 1.74 | > 100 | > 100 | > 100 | > 100 | > 100 | > 100 | > 100 | > 100 | > 100 | > 100 | > 100 | > 100 | > 100
